Measured values from US20110086813A1, “COMPOUNDS FOR TREATING BACTERIAL INFECTIONS” (priority 2008, published 2011).

Tests used:
[1] = biological target: T1, Relseq from Gram Positive Streptococcus equisimils (Streptococcus dysgalactiae subsp. equisimilis, UniProt Q54089); assay: In vitro (p)ppGpp accumulation, Relseq synthetic activity; format: biochemical; settings: figure only
T1 construct: made in house; host or cells: deltaRelA E. coli cells, IPTG induced
Experimental: (§1) Starters of deltaRelA E. coli cells, expressing one of the following proteins (RelA, RelA638 or Relseq385) in trans, were grown overnight at 37° C. The next day, the starters were diluted 1:50 in 400 ml LBamp and the cells have continued to grow at 37° C. until they reached O.D600=˜0.6. Then, the cells were added with IPTG (1 mg/ml) and the cells were grown at the same conditions for additional 2-3 h. After that the cells were harvested for 10 min at 4000 rpm and the pellet was frozen at −80° C.
(§2) • Lysis of the pellet using “Lysis Buffer” containing Lysozyme (3 mg/ml) and ½ pill of Complete (EDTA-free). • Sonication on ice for 3.5 min. • Centrifuge the cells for 10 min at 10000 rpm. • Mix the supernatant with Ni-NTA bids for 1 h at 4° C. • Load the bids on a column and wash it with “Wash Buffer”. • Elute the protein using “Elution Buffer”.
(§3) The elution fractions were run on 12% Acryl/Bis gel and the fractions containing the most protein were taken to dialysis (two times overnight at 4° C.). After dialysis the concentration of the protein was determined using Bradford Reagent (O.D595).
(§4) In Vitro (p)ppGpp Accumulation:
(§5) 2.5 mM GTP, 20 mM ATP, 200 mM Tris HCl pH7.4, 5 mM DTT, 50 mM MgCl2
(§6) 50 mM KCl, 135 mM (NH4)2SO4, α-^32P GTP (0.1 μl per reaction), DDW
(§7) Once the buffer is added together with 1 μg of protein, 0-10 mM of inhibitor and 30 μg of ribosomes (in a total volume of 20 μl) the following reaction occurs: GTP/GDP+ATP→(p)ppGpp.
(§8) The reactions are incubated at room temperature for a period of 10-90 minutes. Then, the reactions are stopped by the addition of 5 μl of Formic acid. Once the reactions were stopped, they were placed on ice until 5 μl of each reaction were loaded on Cellulose PEI (Merck) and ran for 2 hours in 1.5M KH2PO4. The PEI was read, using image reader-1000 V1.8 and the data was analyzed by TINA 2.0 software.

[2] = biological target: T2, Gram Negative E. coli RelA (Escherichia coli, UniProt P0AG20); assay: In vitro (p)ppGpp accumulation, RelA synthetic activity; format: biochemical; settings: figure only
T2 construct: made in house; host or cells: deltaRelA E. coli cells, IPTG induced
T2 sequence (P0AG20 whole entry): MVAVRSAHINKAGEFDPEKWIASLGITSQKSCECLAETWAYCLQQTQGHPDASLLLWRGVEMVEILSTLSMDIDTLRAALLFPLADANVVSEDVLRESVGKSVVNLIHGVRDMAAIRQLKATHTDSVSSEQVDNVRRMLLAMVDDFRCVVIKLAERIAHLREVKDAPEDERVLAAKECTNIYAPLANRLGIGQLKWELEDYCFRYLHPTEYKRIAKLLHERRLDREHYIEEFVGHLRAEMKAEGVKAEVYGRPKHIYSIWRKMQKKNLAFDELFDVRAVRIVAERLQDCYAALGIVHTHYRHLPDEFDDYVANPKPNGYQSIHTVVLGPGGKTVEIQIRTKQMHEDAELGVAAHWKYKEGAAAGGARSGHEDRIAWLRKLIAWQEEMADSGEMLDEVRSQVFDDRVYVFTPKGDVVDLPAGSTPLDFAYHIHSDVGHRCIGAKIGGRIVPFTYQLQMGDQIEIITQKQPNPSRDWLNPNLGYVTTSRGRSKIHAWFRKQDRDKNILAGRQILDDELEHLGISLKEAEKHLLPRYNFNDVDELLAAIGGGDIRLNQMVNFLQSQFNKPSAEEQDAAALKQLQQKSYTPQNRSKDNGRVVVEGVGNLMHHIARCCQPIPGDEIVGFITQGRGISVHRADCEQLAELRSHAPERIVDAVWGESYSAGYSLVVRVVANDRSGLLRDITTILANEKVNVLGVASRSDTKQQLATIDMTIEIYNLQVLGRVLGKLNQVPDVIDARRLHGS
Experimental: as §1, §2, §3, §4, §5, §6, §7, §8

[3] = presented as % inhibition vs. compound concentration
[4] = presented as pmol (p)ppGpp per mg RelA vs. compound concentration, 0-10 mM inhibitor
[5] = separate experiment, presented as % inhibition vs. compound concentration

T1 sequence (Q54089 1-385): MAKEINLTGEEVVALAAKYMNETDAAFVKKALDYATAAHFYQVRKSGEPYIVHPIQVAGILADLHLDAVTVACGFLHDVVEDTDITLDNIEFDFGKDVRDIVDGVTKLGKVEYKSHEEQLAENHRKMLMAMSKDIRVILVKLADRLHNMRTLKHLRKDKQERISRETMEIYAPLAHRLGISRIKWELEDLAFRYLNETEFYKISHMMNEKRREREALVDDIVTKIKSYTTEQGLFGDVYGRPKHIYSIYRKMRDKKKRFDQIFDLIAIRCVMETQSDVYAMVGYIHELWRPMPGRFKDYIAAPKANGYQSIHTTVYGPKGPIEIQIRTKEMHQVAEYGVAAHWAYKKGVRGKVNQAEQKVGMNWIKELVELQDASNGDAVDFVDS

How did the “inhibitory effect on Relseq synthetic activity in vitro” value [1, 3] turn out when `Nc1nc2c(ncn2[C@@H]2O[C@H](COP(=O)(O)CP(=O)(O)O)C(O)C2O)c(=O)[nH]1` (stereo partly drawn) [Compound A1] was run?
The value was “inhibitory effect”.

What about the “inhibitory effect on RelA synthetic activity in vitro” value [2, 4] of the same compound?
Its value is “inhibitory effect”.

What about the “inhibitory effect on RelA synthetic activity in vitro” value [2, 5] of the same compound?
Its value is “inhibitory effect”.

Which results are given for `Nc1nc2c(ncn2[C@H]2CC(OP(=O)(O)CP(=O)(O)O)[C@@H](COP(=O)(O)CP(=O)(O)O)O2)c(=O)[nH]1` (stereo partly drawn) [Compound D3, 5′,3′-O-di-[methylene-(bisphosphonate)]-2′-deoxyguanosine]?
inhibitory effect on Relseq synthetic activity in vitro [1, 3]: inhibitory effect; inhibitory effect on Relseq synthetic activity in vitro ([1]; presented as pmol (p)ppGpp per mg Relseq vs. compound concentration): inhibitory effect; inhibitory effect on RelA synthetic activity in vitro [2, 4]: inhibitory effect; inhibitory effect on RelA synthetic activity in vitro [2, 5]: inhibitory effect

How did the “inhibitory effect on Relseq synthetic activity in vitro” value [1, 3] turn out when `Nc1nc2c(ncn2[C@@H]2O[C@H](COP(=O)(O)CP(=O)(O)O)C(OP(=O)(O)CP(=O)(O)O)C2O)c(=O)[nH]1` (stereo partly drawn) [Compound D1c] was run?
Its value is “inhibitory effect”.

And the “inhibitory effect on RelA synthetic activity in vitro” value [2, 5]?
Its value is “inhibitory effect”.

For `CC(C)C(=O)Nc1nc2c(ncn2C2OC(COP(=O)(O)CP(=O)(O)O)C(OP(=O)(O)CP(=O)(O)O)C2O[Si](C)(C)C(C)(C)C)c(=O)[nH]1` (stereo not drawn) [Compound D7], which “inhibitory effect on RelA synthetic activity in vitro” value [2, 4] is on record?
The value was “inhibitory effect”.

What about the “inhibitory effect on RelA synthetic activity in vitro” value [2, 5] of the same compound?
Its value is “inhibitory effect”.

For `CC(C)C(=O)Nc1nc2c(ncn2C2OC(COP(=O)(O)CP(=O)(O)O)C(O)C2OP(=O)(O)CP(=O)(O)O)c(=O)[nH]1` (stereo not drawn) [Compound D2c], which “inhibitory effect on RelA synthetic activity in vitro” value [2, 5] is on record?
Its value is “inhibitory effect”.

With `CC(C)C(=O)Nc1nc2c(ncn2C2OC(COP(=O)(O)CP(=O)(O)O)C(OP(=O)(O)CP(=O)(O)O)C2O)c(=O)[nH]1` (stereo not drawn) [Compound D8] as the compound, how does the “inhibitory effect on RelA synthetic activity in vitro” value [2, 4] read?
Its value is “inhibitory effect”.

What about the “inhibitory effect on RelA synthetic activity in vitro” value [2, 5] of the same compound?
Its value is “inhibitory effect”.

With `CC(C)C(=O)Nc1nc2c(ncn2C2OC(COP(=O)(O)CP(=O)(O)O)C(O[Si](C)(C)C(C)(C)C)C2OP(=O)(O)CP(=O)(O)O)c(=O)[nH]1` (stereo not drawn) [Compound D6] as the compound, how does the “inhibitory effect on RelA synthetic activity in vitro” value [2, 4] read?
Its value is “inhibitory effect”.

What about the “inhibitory effect on RelA synthetic activity in vitro” value [2, 5] of the same compound?
The value was “inhibitory effect”.

What does the source list for `CC1(C)OC2C(COP(=O)(O)CP(=O)(O)O)OC(n3cnc4c(=O)[nH]c(N)nc43)C2O1` (stereo not drawn) [Compound E3b]?
inhibitory effect on Relseq synthetic activity in vitro [1, 3]: inhibitory effect; inhibitory effect on RelA synthetic activity in vitro [2, 4]: inhibitory effect; inhibitory effect on RelA synthetic activity in vitro [2, 5]: inhibitory effect

Which “inhibitory effect on Relseq synthetic activity in vitro” value [1, 3] does the source give for `Nc1nc2c(ncn2[C@@H]2O[C@H](COP(=O)(O)CP(=O)(O)O)C(O)C2OP(=O)(O)CP(=O)(O)O)c(=O)[nH]1` (stereo partly drawn) [Compound D2b] here?
The value was “inhibitory effect”.

What about the “inhibitory effect on RelA synthetic activity in vitro” value [2, 5] of the same compound?
Its value is “inhibitory effect”.
